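48-hour exposure; five concentrations; linearly interpolated endpoints. TGI denotes the concentration required for complete inhibition of growth.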
What was measured:
Assay in all cases: NCI anticancer screen, dose series, 48 h
M19-MEL melanoma = system: M19-MEL melanoma
SF-539 CNS = system: SF-539 CNS
UACC-62 melanoma = system: UACC-62 melanoma
HCT-116 colon = system: HCT-116 colon
DMS 114 small cell lung = system: DMS 114 small cell lung
LXFL 529 NSCLC = system: LXFL 529 NSCLC
DMS 273 small cell lung = system: DMS 273 small cell lung
MALME-3M melanoma = system: MALME-3M melanoma
KM12 colon = system: KM12 colon
HOP-62 NSCLC = system: HOP-62 NSCLC

## CC(C)N(C(=O)C12C3C4C5(C#N)C3C1(C#N)C5C42C#N)C(C)C (stereo not given)
M19-MEL melanoma
  TGI: > 100 µM
SF-539 CNS
  TGI: > 100 µM
UACC-62 melanoma
  TGI: > 100 µM
HCT-116 colon
  TGI: > 100 µM
DMS 114 small cell lung
  TGI: > 100 µM
LXFL 529 NSCLC
  TGI: > 100 µM
DMS 273 small cell lung
  TGI: > 100 µM
MALME-3M melanoma
  TGI: > 100 µM
KM12 colon
  TGI: > 100 µM
HOP-62 NSCLC
  TGI: > 100 µM

## O=C(CCC(=O)Nc1ccc(Cl)c(Cl)c1)Cc1nc2ccccc2o1
M19-MEL melanoma
  TGI: > 100 µM
SF-539 CNS
  TGI: > 100 µM
UACC-62 melanoma
  TGI: > 100 µM
HCT-116 colon
  TGI: > 100 µM
DMS 114 small cell lung
  TGI: > 100 µM
LXFL 529 NSCLC
  TGI: > 100 µM
DMS 273 small cell lung
  TGI: > 100 µM
MALME-3M melanoma
  TGI: > 100 µM
KM12 colon
  TGI: > 100 µM
HOP-62 NSCLC
  TGI: > 100 µM

## Cc1nc2sccn2c1C(=O)NN
M19-MEL melanoma
  TGI: > 100 µM
SF-539 CNS
  TGI: > 100 µM
UACC-62 melanoma
  TGI: > 100 µM
HCT-116 colon
  TGI: > 100 µM
DMS 114 small cell lung
  TGI: > 100 µM
LXFL 529 NSCLC
  TGI: > 100 µM
DMS 273 small cell lung
  TGI: > 100 µM
MALME-3M melanoma
  TGI: > 100 µM
KM12 colon
  TGI: > 100 µM
HOP-62 NSCLC
  TGI: > 100 µM

## O=C(C(=O)c1cc2ccccc2[nH]1)c1cc2ccccc2[nH]1
M19-MEL melanoma
  TGI: > 347 µM
SF-539 CNS
  TGI: > 347 µM
UACC-62 melanoma
  TGI: > 347 µM
HCT-116 colon
  TGI: > 347 µM
DMS 114 small cell lung
  TGI: > 347 µM
LXFL 529 NSCLC
  TGI: > 347 µM
DMS 273 small cell lung
  TGI: > 347 µM
MALME-3M melanoma
  TGI: > 347 µM
KM12 colon
  TGI: > 347 µM
HOP-62 NSCLC
  TGI: > 347 µM

## COC(COC(N)=O)C1=C(N2CC2)C(=O)C(C)=C(N2CC2)C1=O (stereo not given)
M19-MEL melanoma
  TGI: 0.507 µM
SF-539 CNS
  TGI: 0.202 µM
UACC-62 melanoma
  TGI: 0.173 µM
HCT-116 colon
  TGI: 0.134 µM
DMS 114 small cell lung
  TGI: 0.38 µM
LXFL 529 NSCLC
  TGI: 0.672 µM
DMS 273 small cell lung
  TGI: 0.0752 µM
MALME-3M melanoma
  TGI: 0.301 µM
KM12 colon
  TGI: 0.365 µM
HOP-62 NSCLC
  TGI: 0.227 µM

## NCCSSCc1ccccc1CSSCCN
M19-MEL melanoma
  TGI: > 100 µM
SF-539 CNS
  TGI: > 100 µM
UACC-62 melanoma
  TGI: > 100 µM
HCT-116 colon
  TGI: > 100 µM
DMS 114 small cell lung
  TGI: > 100 µM
LXFL 529 NSCLC
  TGI: > 100 µM
DMS 273 small cell lung
  TGI: > 100 µM
MALME-3M melanoma
  TGI: > 100 µM
KM12 colon
  TGI: > 100 µM
HOP-62 NSCLC
  TGI: > 100 µM

## O=C(/C=C\c1ccccc1O)c1ccc(O)cc1O
M19-MEL melanoma
  TGI: > 100 µM
SF-539 CNS
  TGI: > 100 µM
UACC-62 melanoma
  TGI: > 100 µM
HCT-116 colon
  TGI: > 100 µM
DMS 114 small cell lung
  TGI: > 100 µM
LXFL 529 NSCLC
  TGI: > 100 µM
DMS 273 small cell lung
  TGI: > 100 µM
MALME-3M melanoma
  TGI: > 100 µM
KM12 colon
  TGI: > 100 µM
HOP-62 NSCLC
  TGI: > 100 µM

## Cc1ccc(C)c(N2C(=O)C(=O)C(c3nc4ccccc4s3)/C(=N/N)C2=O)c1 (stereo not given)
M19-MEL melanoma
  TGI: > 52.7 µM
SF-539 CNS
  TGI: > 100 µM
UACC-62 melanoma
  TGI: > 100 µM
HCT-116 colon
  TGI: > 100 µM
DMS 114 small cell lung
  TGI: > 100 µM
LXFL 529 NSCLC
  TGI: > 100 µM
DMS 273 small cell lung
  TGI: > 100 µM
MALME-3M melanoma
  TGI: > 100 µM
KM12 colon
  TGI: > 100 µM
HOP-62 NSCLC
  TGI: > 100 µM

## C=CSCCC(N)C(=O)O (stereo not given)
M19-MEL melanoma
  TGI: > 100 µM
SF-539 CNS
  TGI: > 100 µM
UACC-62 melanoma
  TGI: > 100 µM
HCT-116 colon
  TGI: > 100 µM
DMS 114 small cell lung
  TGI: > 100 µM
LXFL 529 NSCLC
  TGI: > 100 µM
DMS 273 small cell lung
  TGI: > 100 µM
MALME-3M melanoma
  TGI: > 100 µM
KM12 colon
  TGI: > 100 µM
HOP-62 NSCLC
  TGI: > 100 µM

## C=C(CCCCC)CN1CCCC1C(C)=O (stereo not given)
M19-MEL melanoma
  TGI: > 100 µM
SF-539 CNS
  TGI: > 100 µM
UACC-62 melanoma
  TGI: > 100 µM
HCT-116 colon
  TGI: > 80.9 µM
DMS 114 small cell lung
  TGI: 42.8 µM
LXFL 529 NSCLC
  TGI: > 100 µM
DMS 273 small cell lung
  TGI: 53.1 µM
MALME-3M melanoma
  TGI: > 100 µM
KM12 colon
  TGI: > 100 µM
HOP-62 NSCLC
  TGI: 64.1 µM

## C=C(C)[C@H]1CC[C@@]2(C)C(C1)[C@H](C)CC[C@@H]2O (stereo not given in full)
M19-MEL melanoma
  TGI: > 100 µM
SF-539 CNS
  TGI: > 100 µM
UACC-62 melanoma
  TGI: > 100 µM
HCT-116 colon
  TGI: > 100 µM
DMS 114 small cell lung
  TGI: > 100 µM
LXFL 529 NSCLC
  TGI: > 100 µM
DMS 273 small cell lung
  TGI: > 100 µM
MALME-3M melanoma
  TGI: > 100 µM
KM12 colon
  TGI: > 100 µM
HOP-62 NSCLC
  TGI: > 100 µM
